Measurements as given in patent US20180028601A1, “METHODS AND COMPOSITIONS FOR TREATING CANCER” (Yissum Research Development Company of The Hebrew …, priority 2016, published 2018).

Experiments:
erythrocytes = experiment: Hemagglutination assay; format: cell-based; conditions: bacteria preincubated with 25 mM GalNAc
Experimental: Hemagglutination Assays—Hemagglutination assays were performed as previously described (Coppenhagen-Glazer et al., 2015, ibid). For inhibition assays, washed bacteria were preincubated with 25 mM GalNAc (Sigma-Aldrich) for 30 min prior to incubation with erythrocytes.

[1] = system: human colon adenocarcinoma sections; experiment: Binding of fluorescently labeled F. nucleatum to human colon tissue sections / TMA; conditions: 300 mM GalNAc
Experimental: Tissue Microarray Analysis—Colon cancer tissue array CO2601 (US Biomax) and array CO809a (US Biomax) were used in these studies. Details about the cases for each core on the array are available on the US Biomax Web site.
Immunofluorescence and Section Preparation—Fixed tissue sections were stained with H&E or processed for immunofluorescence microscopy. Sections were blocked and incubated with fluorescent PNA or fluorescent bacteria and imaging analysis are as described in Abed et al. 2016. ibid, Supplemental Experimental Procedures. GalNAc removal was performed by incubating sections with O-glycanase.; see Supplemental Experimental Procedures for experimental details.

[2] = system: high and intermediate Gal-GalNAc-expressing CRC cell lines (HCT116, CT26, RKO); experiment: Flow cytometry attachment and GalNAc competition assays, high and intermediate Gal-GalNAc-expressing lines; format: cell-based, human and mouse; conditions: p=0.04167
Experimental: Flow Cytometry and Competition Assays—FITC-labeled F. nucleatum were incubated with cells at a MOI of 10 for 30 min at room temperature. FITC-labeled PNA lectin (Sigma-Aldrich) was incubated at a final concentration of 140 nM per 2.5×10^5 cells. For competition experiments, bacteria or PNA was incubated with GalNAc (concentration range 0, 50, 100, and 300 mM) for 30 min prior to incubation with cells. Flow cytometry methods and analysis are as described in Abed et al. 2016. ibid, Supplemental Experimental Procedures.

## CC(=O)N[C@H]1C(O)O[C@H](CO)[C@H](O)[C@@H]1O (stereo partly shown) [GalNAc]
erythrocytes
  inhibition of CTI-2 hemagglutination: inhibited
[1]
  inhibition of binding of F. nucleatum ATCC 23726 to human CRC tissue sections: inhibits binding
[2]; GalNAc 0, 50, 100, 300 mM
  inhibition of F. nucleatum ATCC 23726 binding to cells: inhibited by GalNAc in a statistically significant, dose-dependent manner
[2]; soluble GalNAc 0-300 mM
  inhibition of CTI-2 binding to cells: inhibited by the addition of soluble GalNAc in a dose-dependent manner
